The values below are quoted from earlier work in US20060228403A1, “Nutritional supplements for cardiovascular health” (priority 2005, published 2006).

The test system of data set [1] is cytochrome P450 omega-hydroxylase. As to conditions: hamster; for magnitude of O2-induced constriction of arterioles in the cremaster and retractor muscles: 17-octadecynoic acid 10 micromolar superfusion, DDMS intravenous infusion.
In the next data set the test system is forearm microcirculation. As to conditions: after supplementation 4 g/d for 6 weeks.
Data set [2] has as its system platelet aggregation in cerebral arterioles. As to conditions: mice.
In the next data set the test system is thromboxane B2. As to conditions: mice; fish oil daily by gavage six weeks; indomethacin 0.5 mg/kg ip acute.

`C#CCCCCCCCCCCCCCCCC(=O)O` [17-octadecynoic acid]: in data set [1], the “arteriolar constriction in response to elevated PO2 in the epithelial portion of the cheek pouch” value is recorded as “unaffected”; the “magnitude of O2-induced constriction of arterioles in the cremaster and retractor muscles” value is “significant reduction”.

Regarding `CC/C=C\C/C=C\C/C=C\C/C=C\C/C=C\C/C=C\CCC(=O)O` [DHA, docosahexaenoic acid], the “plasma phospholipid DHA composition” value in the data set with forearm microcirculation is on record as “increased”.

As for `CC/C=C\C/C=C\C/C=C\C/C=C\C/C=C\CCCC(=O)O` [EPA, eicosapentaenoic acid], the “plasma phospholipid EPA levels” value in the data set with forearm microcirculation is “increased significantly”.

On to `COc1ccc2c(c1)c(CC(=O)O)c(C)n2C(=O)c1ccc(Cl)cc1` [Indomethacin, indomethacin], for which the “effect on arteriolar platelet aggregation” value in data set [2] is recorded as “significantly slows”. In data set [2] (0.5 mg/kg ip acute), the “increase of time to first arteriolar aggregate” value is 35%. Also, the “decrease of serum thromboxane B2” value with thromboxane B2 is 80%.

In the case of `CS(=O)(=O)NC(=O)CCCCCCCCCC=C(Br)Br` [N-methylsulfonyl-12,12-dibromododec-11-enamide], in data set [1], the “arteriolar constriction in response to elevated PO2 in the epithelial portion of the cheek pouch” value is recorded as “unaffected”; the “magnitude of O2-induced constriction of arterioles in the cremaster and retractor muscles” value is recorded as “significant reduction”.
